Values quoted from earlier work as cited in patent US6825231B2, “Substituted norbornylamino derivatives, processes for their preparation, their use as medicaments or diagnostics, and a medicament comprising them” (Aventis Pharma Deutschland GmbH, priority 1999, dated 2004).

Target: NHE3 (Oryctolagus cuniculus, UniProt P26432)
Conditions: literature: Donowitz et al. Am. J. Physiol. 276: C136-C144; cited from earlier work

NHE3, sequence (P26432 30-832): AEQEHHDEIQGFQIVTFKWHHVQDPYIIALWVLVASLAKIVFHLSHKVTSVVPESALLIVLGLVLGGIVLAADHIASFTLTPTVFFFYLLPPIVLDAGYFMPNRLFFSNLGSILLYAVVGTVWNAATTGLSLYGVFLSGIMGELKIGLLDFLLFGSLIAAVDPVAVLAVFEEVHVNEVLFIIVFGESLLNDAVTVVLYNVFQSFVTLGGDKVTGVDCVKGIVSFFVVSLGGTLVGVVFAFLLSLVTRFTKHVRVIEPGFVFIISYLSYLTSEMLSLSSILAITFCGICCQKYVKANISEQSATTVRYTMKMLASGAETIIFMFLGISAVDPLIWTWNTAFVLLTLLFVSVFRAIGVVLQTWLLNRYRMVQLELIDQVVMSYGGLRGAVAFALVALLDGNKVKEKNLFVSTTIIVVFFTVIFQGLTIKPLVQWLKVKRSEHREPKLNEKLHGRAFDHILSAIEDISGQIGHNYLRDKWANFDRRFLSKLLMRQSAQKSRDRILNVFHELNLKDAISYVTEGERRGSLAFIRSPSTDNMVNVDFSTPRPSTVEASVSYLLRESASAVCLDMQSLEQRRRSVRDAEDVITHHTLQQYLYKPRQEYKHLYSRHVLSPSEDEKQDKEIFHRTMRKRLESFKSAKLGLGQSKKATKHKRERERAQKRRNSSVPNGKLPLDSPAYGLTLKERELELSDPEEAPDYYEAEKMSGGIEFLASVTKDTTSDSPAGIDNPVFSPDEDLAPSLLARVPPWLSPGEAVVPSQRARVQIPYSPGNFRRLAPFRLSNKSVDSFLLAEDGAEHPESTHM

In the case of `CC(C)[C@@H](CC[C@@H](C)[C@H]1CC[C@H]2[C@@H]3[C@H](O)C[C@H]4C[C@@H](NCCCNCCCCN)CC[C@]4(C)[C@H]3CC[C@]12C)OS(=O)(=O)O` [squalamine], the “delay of NHE3 inhibitory activity” value is given as “activity seen after one hour”.
